Measured values from ChEMBL document CHEMBL2021871, “The effects of diketopiperazines from Callyspongia sp. on release of cytokines and chemokines in cultured J774A.1 macrophages” (2012).
The source made the active and inactive calls. The calls are words filed in the database; no cut-off is given here.

Key:
Format in all cases: functional
[1] = tested on: J774.A1; test: Induction of IL10 secretion in mouse J774A1 cells at 5 ug/mL after 48 hrs by ELISA relative to control
[2] = tested on: J774.A1; test: Induction of IFN-gamma secretion in mouse J774A1 cells at 5 ug/mL after 48 hrs by ELISA relative to control
[3] = tested on: J774.A1; test: Induction of MCP-1 secretion in mouse J774A1 cells at 5 ug/mL after 48 hrs by ELISA relative to control
[4] = tested on: J774.A1; test: Induction of TNF-alpha secretion in mouse J774A1 cells at 5 ug/mL after 48 hrs by ELISA relative to control
[5] = tested on: J774.A1; test: Reduction of TNF-alpha secretion in mouse J774A1 cells at 5 ug/mL after 48 hrs by ELISA relative to control; design: scale not given: the % may be the effect or the level left

SMILES | Activity [1] | fold change (FC) [2] | fold change (FC) [3] | Activity [4] | Activity [5] [%] | fold change (FC) [1] | fold change (FC) [4]
CC(C)C[C@@H]1NC(=O)[C@H](Cc2ccc(O)cc2)NC1=O | inactive | 1.82 | 2.24 | inactive | 88.3 | – | –
C[C@@H]1NC(=O)[C@@H]2CCCN2C1=O | – | 1.36 | 1.47 | – | – | 1.56 | –
C[C@@H]1NC(=O)[C@@H]2C[C@@H](O)CN2C1=O | – | 4.49 | 3.09 | – | – | 1.65 | 1.12
O=C1NCC(=O)N2CCC[C@@H]12 [CYCLO(PROLYLGLYCYL)] | – | 3.5 | 1.86 | inactive | – | 1.29 | –
O=C1N[C@@H](Cc2ccccc2)C(=O)N2CCC[C@@H]12 | – | 1.62 | 2.05 | inactive | – | 1.54 | –
